In US9808434B2, “Compound for treating cancer and diabetes” (CITY OF HOPE, priority 2011, dated 2017):

Assays:
HL-60 cells = assay: HL-60 apoptosis markers (DNA ladder, DiOC6(3), caspases, cytochrome c, PARP); format: cell-based, human; details: for DiOC6(3) fluorescence (mitochondrial depolarization): 4 hours; for cytochrome c release and PARP: 24 hours; for cytochrome c release and PARP / caspase 3/7 and caspase 9 activity: 0.5-3 μM; for caspase 3/7 and caspase 9 activity: 48 hours; for DNA fragmentation (DNA ladder): agarose gel
Protocol: DNA was stained with ethidium bromide after electrophoresis on 1.5% agarose gel and then visualized under UV light.
To test whether mitochondrial membrane disruption was involved in the apoptotic effects of COH-SR4 and COH-SR9, fluorescent cationic lipophilic dye DiOC6(3) was used and monitored using flow cytometry. HL-60 cells were exposed to various concentrations of COH-SR4 or COH-SR9 for 4 hours. After incubation, cells were rinsed and stained with the cationic fluorescent dye DiOC6(3) and then the overall fluorescence was analyzed by flow cytometry. […] Reduction of the fluorescence intensity of DiOC6(3) is indicative of the cells undergoing mitochondrial depolarization and loss of Δψmt. This effect, which has been commonly observed with other anticancer drugs irrespective of the cell type, generally defines an early but already irreversible stage of apoptosis.
HL-60 (2.5×10^4) cells were seeded into 96-well plates and incubated with a test compound (COH-SR4 or COH-SR9) at various concentrations (0.5˜3 μM) for 48 hours, then caspase-3/7 or caspase-9 activity was measured with the Caspase Glo kit (Promega), respectively. Data are expressed as mean±SE from 3 independent experiments (FIG. 18A), “*” in the figure means p<0.05 when compared to the untreated control.
Treatment of COH-SR compounds also triggered release of cytochrome c (14 kDa) into the cytoplasm and cleavage of full length PARP (116 kDa) into the 89 kDa fragment, all hallmarks of cells undergoing apoptosis (FIG. 18B). HL-60 cells were treated with COH-SR4 or COH-SR9 at various concentrations (0.5 μM˜3 μM) or nothing for 24 hours. Cytochrome c (14 kDa) and cleavage of full length PARP (116 kDa) into the 89 kDa fragment were analyzed in untreated HL-60 cells and HL-60 cells treated with COH-SR4 or COH-SR9 by Western blot. Numbers below each blot represent fold increase in protein expression relative to the control as quantified by densitometry and calculated with reference to β-actin as an internal standard.

[1] = system: HMLE breast cancer cell line; assay: HMLE viability, DIMSCAN assay; format: cell-based, human; details: 3 days, 2-50 μM
Protocol: The effects of COH-SR compounds on breast cancer cells were investigated. Cells from 4T1 or HMLE breast cancer cell line were seeded in 96-well plates (about 2000 cells/well), allowed to proliferate for one day, treated with a COH-SR compound, doxorubicin, paclitaxel, cisplatin, or nothing (control) at a specific dose (3 wells for each treatment) and assayed for cell viability 3 days after using DIMSCAN assay. COH-SR3, COH-SR4, COH-SR9, doxorubicin, paclitaxel, and cisplatin were used at a dosage of 40 nM, 200 nM, 1 μM, 2 μM, 10 μM, or 50 μM for 4T1 breast cancer cell lines. COH-SR14 was used at a dosage of 40 nM, 200 nM, 1 μM, 2 μM, or 10 μM for 4T1 breast cancer cell lines. COH-SR3, COH-SR4, COH-SR9, doxorubicin, paclitaxel, and cisplatin were used at a dosage of 2 μM, 10 μM, or 50 μM for HMLE breast cancer cell lines. COH-SR14 was used at a dosage of 2 μM, or 10 μM for HMLE breast cancer cell lines.

melanoma cells = assay: MTT assay, melanoma cell lines of various mutational status; format: cell-based; details: 48 h, regardless of mutational status; read-out: IC50 values across melanoma cell lines
Protocol: Cell density measurements were performed using a hemocytometer to count reproductive cells resistant to staining with trypan blue. Approximately 20,000 cells were plated into each well of 96-well flat-bottomed micro-titer plates. After 12 h or 24 h incubation at 37° C., medium containing either COH-SR4 (ranging 0-200 μM) or elesclomol (ranging 0-20 μM) were added to the cells. After 24 h, 48 h or 96 h incubation, 20 μL of 5 mg/mL MTT were introduced to each well and incubated for 2 h. The plates were centrifuged and medium was decanted. Cells were subsequently dissolved in 100 μl DMSO with gentle shaking for 2 h at room temperature, followed by measurement of OD570 (91).

[2] = system: B16-F0 mouse and A2058 human melanoma cells; assay: Cell cycle FACS analysis, melanoma; format: cell-based; details: 18 h
Protocol: (§1) 2×10^5 cells were treated with COH-SR4 (0 μM, 5 μM or 10 μM) for 18 h at 37° C. After treatment, floating and adherent cells were collected, washed with PBS, and fixed with 70% ethanol. On the day of flow analysis, cell suspensions were centrifuged; counted and same numbers of cells were resuspended in 500 μL PBS in flow cytometry tubes. Cells were then incubated with 2.5 μL of RNase (stock 20 mg/mL) at 37° C. for 30 min after which they were treated with 10 μL of propidium iodide (stock 1 mg/mL) solution and then incubated at room temperature for 30 min in the dark. The stained cells were analyzed using the Beckman Coulter Cytomics FC500, Flow Cytometry Analyzer. Results were processed using CXP2.2 analysis software from Beckman Coulter.

H-358 and H-520 cells = assay: Cell cycle FACS analysis, lung cancer; format: cell-based, human
Protocol: as §1
In the context of the elevation of GSTs in lung cancer, the impact of COH-SR4 on the catalytic activity of GSTs towards 1-chloro 2,4-dinitro benzene (CDNB), a model substrate used for GST activity was analyzed. GST activity towards 1-chloro 2,4-dinitro benzene (CDNB) and its inhibition by COH-SR4 was performed in 28000×g crude supernatant prepared from H1417, H1618, H520 and H358 cells. The inhibitory effect of COH-SR4 on GST was studied at a fixed concentration of GSH and CDNB (1 mM each) and varying concentrations of inhibitor. The enzymes were pre-incubated with the inhibitor for 5 min at 37° C. prior to the addition of the substrates. […]

Compound	DiOC6(3) fluorescence (mitochondrial depolarization) (HL-60 cells)	cytochrome c release and PARP (HL-60 cells)	caspase 3/7 and caspase 9 activity (HL-60 cells)	DNA fragmentation (DNA ladder) (HL-60 cells)	cytotoxic effects compared with doxorubicin, paclitaxel and cisplatin (FIG. 30) [1]	IC50 (melanoma cells)	cells accumulated in G2 phase (G2/M phase arrest) [2]	cell cycle arrest (H-358 and H-520 cells)
O=C(Nc1cc(Cl)cc(Cl)c1)Nc1cc(Cl)cc(Cl)c1 [COH-SR4, 1,3-bis(3,5-dichlorophenyl) urea]	decreased overall DiOC6(3) fluorescent intensity	release of cytochrome c into the cytoplasm and PARP enzyme activation	higher caspase 3/7 and caspase 9 activity	dose-dependent DNA fragmentation	more potent cytotoxic effects	1.2 to 4.8 µM	~50%	induced G0/G1 phase arrest in a concentration dependent manner
Cc1c(Cl)cc(NC(=O)Nc2cc(Cl)cc(Cl)c2)c(O)c1Cl [COH-SR9, 1-(3,5-dichlorophenyl)-3-(3,5-dichloro-2-hydroxy-4-methyphenyl) urea]	decreased overall DiOC6(3) fluorescent intensity	release of cytochrome c into the cytoplasm and PARP enzyme activation	higher caspase 3/7 and caspase 9 activity	dose-dependent DNA fragmentation	more potent cytotoxic effects	–	–	–
